Laboratory results as given in patent publication US9924716B2, “Molecules having pesticidal utility, and intermediates, compositions, and processes, related thereto” (Dow AgroSciences LLC, priority 2016, dated 2018).

Legend:
Assay type in all cases: in vivo
[1] = test system: Cabbage Looper (Trichoplusia ni, TRIPNI) second instar larvae; test: Bioassay on Cabbage Looper (CL), 128-well diet tray assay; conditions: for pest or weed control at 50 µg/cm2: Cabbage Looper, Table ABC Biological Results, read-out: CL rating; for mortality at 0.05 µg/cm2: 0.05 μg/cm^2 on artificial diet; for mortality at 0.05 µg/cm2 / mortality at 0.5 µg/cm2 / mortality at 5 µg/cm2: read-out: Percent control (or mortality) CL; for mortality at 0.5 µg/cm2: 0.5 μg/cm^2 on artificial diet; for mortality at 5 µg/cm2: 5 μg/cm^2 on artificial diet
Description: (§1) Certain molecules disclosed in this document were tested against BAW, CEW, and CL using procedures described in the following examples. In the reporting of the results, the “BAW, CEW, & CL Rating Table” was used (See Table Section).
Bioassays on CL were conducted using a 128-well diet tray assay. one to five second instar CL larvae were placed in each well (3 mL) of the diet tray that had been previously filled with 1 mL of artificial diet to which 50 μg/cm^2 of the test molecule (dissolved in 50 μL of 90:10 acetone-water mixture) had been applied (to each of eight wells) and then allowed to dry. Trays were covered with a clear self-adhesive cover and held at 25° C., 14:10 light-dark for five to seven days. Percent mortality was recorded for the larvae in each well; activity in the eight wells was then averaged. The results are indicated in the table entitled “Table ABC: Biological Results” (See Table Section).
(§2) Bioassays on BAW and CL were conducted according to the procedures outlined in Example A: Bioassays on Beet Armyworm (“BAW”) and Cabbage Looper (“CL”) using the indicated concentrations.

[2] = test system: Beet Armyworm (Spodoptera exigua, LAPHEG) second instar larvae; test: Bioassay on Beet Armyworm (BAW), 128-well diet tray assay; conditions: for pest or weed control at 50 µg/cm2: Beet Armyworm, Table ABC Biological Results, read-out: BAW rating; for mortality at 0.05 µg/cm2: 0.05 μg/cm^2 on artificial diet; for mortality at 0.05 µg/cm2 / mortality at 0.5 µg/cm2 / mortality at 5 µg/cm2: read-out: Percent control (or mortality) BAW; for mortality at 0.5 µg/cm2: 0.5 μg/cm^2 on artificial diet; for mortality at 5 µg/cm2: 5 μg/cm^2 on artificial diet
Description: as §1
Bioassays on BAW were conducted using a 128-well diet tray assay. one to five second instar BAW larvae were placed in each well (3 mL) of the diet tray that had been previously filled with 1 mL of artificial diet to which 50 μg/cm^2 of the test molecule (dissolved in 50 μL of 90:10 acetone-water mixture) had been applied (to each of eight wells) and then allowed to dry. Trays were covered with a clear self-adhesive cover and held at 25° C., 14:10 light-dark for five to seven days. Percent mortality was recorded for the larvae in each well; activity in the eight wells was then averaged. The results are indicated in the table entitled “Table ABC: Biological Results” (See Table Section).
as §2

[3] = test system: Yellow Fever Mosquito (Aedes aegypti, AEDSAE) larvae; test: Bioassay on Yellow Fever Mosquito (YFM), 96-well plate larval assay; conditions: Table ABC Biological Results
Description: Certain molecules disclosed in this document were tested against YFM using procedures described in the following paragraph. In the reporting of the results, the “GPA & YFM Rating Table” was used (See Table Section).
Master plates containing 400 μg of a molecule dissolved in 100 μL of dimethyl sulfoxide (DMSO) (equivalent to a 4000 ppm solution) are used. A master plate of assembled molecules contains 15 μL per well. To this plate, 135 μL of a 90:10 water:acetone mixture is added to each well. A robot (Biomek® NXP Laboratory Automation Workstation) is programmed to dispense 15 μL aspirations from the master plate into an empty 96-well shallow plate (“daughter” plate). There are 6 reps (“daughter” plates) created per master. The created daughter plates are then immediately infested with YFM larvae.
The day before plates are to be treated, mosquito eggs are placed in Millipore water containing liver powder to begin hatching (4 g. into 400 mL). After the daughter plates are created using the robot, they are infested with 220 μL of the liver powder/larval mosquito mixture (about 1 day-old larvae). After plates are infested with mosquito larvae, a non-evaporative lid is used to cover the plate to reduce drying. Plates are held at room temperature for 3 days prior to grading. After 3 days, each well is observed and scored based on mortality. The results are indicated in the table entitled “Table ABC: Biological Results” (See Table Section).

| Structure (SMILES) | pest or weed control at 50 µg/cm2 [1] [%] | pest or weed control at 50 µg/cm2 [2] [%] | YFM rating [3] | mortality at 0.05 µg/cm2 [1] [%] | mortality at 0.5 µg/cm2 [1] [%] | mortality at 5 µg/cm2 [1] [%] | mortality at 0.05 µg/cm2 [2] [%] | mortality at 0.5 µg/cm2 [2] [%] | mortality at 5 µg/cm2 [2] [%] |
| --- | --- | --- | --- | --- | --- | --- | --- | --- | --- |
| C[C@H](NC(=O)CCC(F)(F)F)NC(=O)c1ccc(/C(F)=C/C(c2cc(Br)c(Cl)c(Br)c2)C(F)(F)F)cc1C(F)(F)F (stereo partly drawn) [F30, 4-((Z)-3-(3,5-Dibromo-4-chlorophenyl)-1,4,4,4-tetrafluorobut-1-en-1-yl)-N—((R)-1-(4,4,4-trifluorobutanamido)ethyl)-2-(trifluoromethyl)benzamide] | 50 to 100 | 50 to 100 | A (80-100) |  |  |  |  |  |  |
| C[C@H](NC(=O)CCC(F)(F)F)NC(=O)c1ccc(/C(F)=C/C(c2cc(Br)cc(Br)c2)C(F)(F)F)cc1C(F)(F)F (stereo partly drawn) [F23, 4-((Z)-3-(3,5-Dibromophenyl)-1,4,4,4-tetrafluorobut-1-en-1-yl)-N—((R)-1-(4,4,4-trifluorobutanamido)ethyl)-2-(trifluoromethyl)benzamide] | 50 to 100 | 50 to 100 | A (80-100) |  |  |  |  |  |  |
| C[C@H](NC(=O)CC(F)(F)F)NC(=O)c1ccc(/C(F)=C/C(c2cc(Cl)cc(Br)c2)C(F)(F)F)cc1C(F)(F)F (stereo partly drawn) [F36, 4-((Z)-3-(3-Bromo-5-chlorophenyl)-1,4,4,4-tetrafluorobut-1-en-1-yl)-2-(trifluoromethyl)-N—((R)-1-(3,3,3-trifluoropropanamido)ethyl)benzamide] | 50 to 100 | 50 to 100 | A (80-100) |  |  |  |  |  |  |
| C=Cc1c(Cl)cc(C(/C=C(\F)c2ccc(C(=O)N[C@H](C)NC(=O)CC(F)(F)F)c(C(F)(F)F)c2)C(F)(F)F)cc1Cl (stereo partly drawn) [F18, 4-((Z)-3-(3,5-Dichloro-4-vinylphenyl)-1,4,4,4-tetrafluorobut-en-1-yl)-2-(trifluoromethyl)-N—((R)-1-(3,3,3-trifluoropropanamido)ethyl)benzamide] | 50 to 100 | 50 to 100 | A (80-100) |  |  |  |  |  |  |
| C[C@H](NC(=O)CC(F)(F)F)NC(=O)c1ccc(/C(F)=C/C(c2cc(Cl)c(Cl)c(Cl)c2)C(F)(F)F)c2ccccc12 (stereo partly drawn) [PF1, 4-((Z)-1,4,4,4-Tetrafluoro-3-(3,4,5-trichlorophenyl)but-1-en-1-yl)-N—((R)-1-(3,3,3-trifluoropropanamido)ethyl)-1-naphthamide] | 50 to 100 | 50 to 100 | B (More than 0-Less than 80) |  |  |  |  |  |  |
| C[C@H](NC(=O)CC(F)(F)F)NC(=O)c1ccc(/C(F)=C/C(c2cc(Cl)c(Cl)c(Cl)c2)C(C)(F)F)cc1C(F)(F)F (stereo partly drawn) [F8, 4-((Z)-1,4,4-Trifluoro-3-(3,4,5-trichlorophenyl)pent-1-en-1-yl)-2-(trifluoromethyl)-N—((R)-1-(3,3,3-trifluoropropanamido)ethyl)benzamide] | 50 to 100 | 50 to 100 |  |  |  |  |  |  |  |
| CCC(=O)N[C@@H](C)NC(=O)c1ccc(/C(F)=C/C(c2cc(Cl)c(Cl)c(Cl)c2)C(F)(F)F)cc1C(F)(F)F (stereo partly drawn) [F34, N—((R)-1-propionamidoethyl)-4-((Z)-1,4,4,4-tetrafluoro-3-(3,4,5-trichlorophenyl)but-1-en-1-yl)-2-(trifluoromethyl)benzamide] | 50 to 100 | 50 to 100 |  |  |  |  |  |  |  |
| C[C@H](NC(=O)CCC(F)(F)F)NC(=O)c1ccc(/C(F)=C/C(c2ccc(Cl)c(Cl)c2)C(C)(F)F)cc1C(F)(F)F (stereo partly drawn) [F40, 4-((Z)-3-(3,4-Dichlorophenyl)-1,4,4-trifluoropent-1-en-1-yl)-N—((R)-1-(4,4,4-trifluorobutanamido)ethyl)-2-(trifluoromethyl)benzamide] | 50 to 100 | 50 to 100 |  |  |  |  |  |  |  |
| C[C@H](NC(=O)CC(F)(F)F)NC(=O)c1ccc(/C(F)=C/C(c2cc(Cl)c(Cl)c(Cl)c2)C(F)(F)F)cc1C(F)(F)F (stereo partly drawn) [F5, 4-((Z)-1,4,4,4-Tetrafluoro-3-(3,4,5-trichlorophenyl)but-1-en-1-yl)-2-(trifluoromethyl)-N—((R)-1-(3,3,3-trifluoropropanamido)ethyl)benzamide] | 50 to 100 | 50 to 100 |  | 100 | 100 | 100 | 100 | 100 | 100 |
| CCC(F)(F)C(/C=C(\F)c1ccc(C(=O)N[C@H](C)NC(=O)CCC(F)(F)F)c(C(F)(F)F)c1)c1cc(Cl)c(Cl)c(Cl)c1 (stereo partly drawn) [F21, 4-((Z)-1,4,4-Trifluoro-3-(3,4,5-trichlorophenyl)hex-1-en-1-yl)-N—((R)-1-(4,4,4-trifluorobutanamido)ethyl)-2-(trifluoromethyl)benzamide] | 50 to 100 | 50 to 100 |  |  |  |  |  |  |  |
| C[C@H](NC(=O)CCC(F)(F)F)NC(=O)c1ccc(/C(F)=C/C(c2cc(Cl)c(Cl)c(Cl)c2)C(F)(F)F)cc1Cl (stereo partly drawn) [F9, 2-Chloro-4-((Z)-1,4,4,4-tetrafluoro-3-(3,4,5-trichlorophenyl)but-1-en-1-yl)-N—((R)-1-(4,4,4-trifluorobutanamido)ethyl)benzamide] | 50 to 100 | 50 to 100 |  | 100 | 100 | 100 | 100 | 100 | 100 |
| C[C@H](NC(=O)CC(F)(F)F)NC(=O)c1ccc(/C(F)=C/C(c2ccc(Cl)c(Cl)c2)C(C)(F)F)cc1C(F)(F)F (stereo partly drawn) [F39, 4-((Z)-3-(3,4-Dichlorophenyl)-1,4,4-trifluoropent-1-en-1-yl)-2-(trifluoromethyl)-N—((R)-1-(3,3,3-trifluoropropanamido)ethyl)benzamide] | 50 to 100 | 50 to 100 |  |  |  |  |  |  |  |
| C[C@H](NC(=O)CC(F)(F)F)NC(=O)c1ccc(/C(F)=C/C(c2ccc(Br)c(Cl)c2)C(F)(F)F)cc1C(F)(F)F (stereo partly drawn) [PF8, 4-((Z)-3-(4-Bromo-3-chlorophenyl)-1,4,4,4-tetrafluorobut-1-en-1-yl)-2-(trifluoromethyl)-N—((R)-1-(3,3,3-trifluoropropanamido)ethyl)benzamide] | 50 to 100 | 50 to 100 |  |  |  |  |  |  |  |
| Cc1cc(/C(F)=C/C(c2cc(Cl)c(Cl)c(Cl)c2)C(C)(F)F)ccc1C(=O)N[C@H](C)NC(=O)CC(F)(F)F (stereo partly drawn) [F6, 2-Methyl-4-((Z)-1,4,4-trifluoro-3-(3,4,5-trichlorophenyl)pent-1-en-1-yl)-N—((R)-1-(3,3,3-trifluoropropanamido)ethyl)benzamide] | 50 to 100 | 50 to 100 |  |  |  |  |  |  |  |
| C[C@H](NC(=O)CCC(F)(F)F)NC(=O)c1ccc(/C(F)=C/C(c2ccc(Cl)c(Br)c2)C(F)(F)F)cc1C(F)(F)F (stereo partly drawn) [PF13, 4-((Z)-3-(3-Bromo-4-chlorophenyl)-1,4,4,4-tetrafluorobut-1-en-1-yl)-N—((R)-1-(4,4,4-trifluorobutanamido)ethyl)-2-(trifluoromethyl)benzamide] | 50 to 100 | 50 to 100 |  |  |  |  |  |  |  |
| C[C@H](NC(=O)CCC(F)(F)F)NC(=O)c1ccc(/C(F)=C/C(c2cc(Cl)c(Cl)c(Cl)c2)C(F)(F)F)cc1C(F)(F)F (stereo partly drawn) [F1, 4-((Z)-1,4,4,4-tetrafluoro-3-(3,4,5-trichlorophenyl)but-1-en-1-yl)-N—((R)-1-(4,4,4-trifluorobutanamido)ethyl)-2-(trifluoromethyl)benzamide] | 50 to 100 | 50 to 100 |  | 100 | 100 | 100 | 100 | 100 | 100 |
